# Experimental data reported in patent publication US20250353873A1, “COMPOUNDS AND METHODS FOR MODULATING APOE EXPRESSION” (Ionis Pharmaceuticals, Inc., priority 2024, published 2025).
# Strand notation (5' to 3'): a small letter for the sugar, then the base; units joined by * are phosphorothioate-linked, units joined directly phosphodiester-linked; [ ] holds rarer units or linkages, { } end groups; capitals alone tell only the bases. [PN] = cyclic guanidine phosphoramidate internucleoside linkage; [ms] = mesyl phosphoramidate linkage; e = 2'-O-(2-methoxyethyl) (MOE); [5mC] = 5-methylcytosine; d = 2'-deoxy (DNA)
# Test system: human APOE RNA
# Experiment: Duration of action study in APOE C57BL/6NTac-Apoeem7250 knock-in mice (Example 16)
# Type: in vivo
# Conditions: 300 μg ICV
# Experimental: Modified oligonucleotides described above were tested in the APOE C57BL/6NTac-Apoeem7250 knock-in mouse model described above.
# APOE C57BL/6NTac-Apoeem7250 knock-in mice were divided into groups of 2-4 mice each. Each mouse received a single intracerebroventricular (ICV) bolus of 300 μg of modified oligonucleotide. A group of 2-4 mice received a single ICV bolus with PBS as a negative control.
# Mice were sacrificed at various timepoints as indicated in the table below and RNA was extracted from cortical brain tissue and spinal cord for quantitative real-time RT-PCR analysis of RNA expression of APOE using primer probe set RTS3073 (described herein above). APOE RNA levels were normalized to mouse Ppia. Mouse Ppia was amplified using primer probe set m_cyclo24 (described herein above). Results are presented as percent human APOE RNA relative to the amount of human APOE RNA in PBS treated animals, (% control). Each experiment is identified in separate tables below.
Substance,APOE RNA (% control) Cortex (14 days post-dose) [% control],APOE RNA (% control) Cortex (112 days post-dose) [% control],APOE RNA (% control) Spinal Cord (14 days post-dose) [% control],APOE RNA (% control) Spinal Cord (112 days post-dose) [% control]
"1721304: 6-10-4 MOE gapmer TTGGTGAATCTTTATTAAAC, linkages s[pn][pn][pn]oosssssszzssoss (eT*eT[PN]eG[PN]eG[PN]eTeGdA*dA*dT*d[5mC]*dT*dT*dT[ms]dA[ms]dT*dT*eAeA*eA*e[5mC]) [compound 1721304]",46,67,45,42
"1721309: 6-10-4 MOE gapmer CTTGGTGAATCTTTATTAAA, linkages s[pn][pn][pn]oossssssssss[pn]ss (e[5mC]*eT[PN]eT[PN]eG[PN]eGeTdG*dA*dA*dT*d[5mC]*dT*dT*dT*dA*dT*eT[PN]eA*eA*eA) [compound 1721309]",45,93,34,39
"1721310: 6-10-4 MOE gapmer CTTGGTGAATCTTTATTAAA, linkages s[pn][pn][pn]oossssssszzs[pn]ss (e[5mC]*eT[PN]eT[PN]eG[PN]eGeTdG*dA*dA*dT*d[5mC]*dT*dT*dT[ms]dA[ms]dT*eT[PN]eA*eA*eA) [compound 1721310]",35,88,38,65
"1721305: 6-10-4 MOE gapmer TTGGTGAATCTTTATTAAAC, linkages s[pn][pn][pn]oossssssssss[pn]ss (eT*eT[PN]eG[PN]eG[PN]eTeGdA*dA*dT*d[5mC]*dT*dT*dT*dA*dT*dT*eA[PN]eA*eA*e[5mC]) [compound 1721305]",52,81,37,40
"1721306: 6-10-4 MOE gapmer TTGGTGAATCTTTATTAAAC, linkages s[pn][pn][pn]oosssssszzss[n]ss (as printed) (sugars from the 5' end e6 d10 e4, all C 5-methyl, backbone not given here; further chemistry not fully specified) [compound 1721306]",58,89,63,60
